In US12268749B2, “Cell-penetrating peptides” (Oxford University Innovation Limited, priority 2018, dated 2025):

What was measured:
exon 51 = settings: in vivo; cited from earlier work
[1] = toxicological assessment of peptide-PMO in C57BL/6 mice (urinary KIM-1, NGAL; serum BUN); assay type: in vivo, mouse; settings: 7 days after single dose of 30 mg/kg, FIG. 7
Method: Female C57BL/6 mice aged 8-10 weeks were administered a single 30 mg/kg dose of peptide-PMO in 0.9% saline by bolus intravenous tail vein injection. Urine was non-invasively collected under chilled conditions at Day 2 and Day 7 post-administration following 20 hours housing in metabolic cages (Tecniplast, UK). Serum was collected from jugular vein at Day 7 at necropsy, as was tibialis anterior, diaphragm and heart tissue.
The same procedure was followed at different single dosage amounts ranging from 2.5 mg/kg up to 50 mg/kg of peptide-PMO in 0.9% saline by intravenous tail vein injection.
Urinary levels of KIM-1 (Kidney injury molecule-1) and NGAL (Neutrophil Gelatinase-Associated Lipocalin) were quantified by ELISA (KIM-1 R&D cat #MKM100, NGAL R&D cat #MLCN20) following appropriate dilution of urine to fit standard curves. Values were normalised to urinary creatinine levels that were quantified at MRC Harwell Institute, Mary Lyon Centre, Oxfordshire, UK. Serum blood urea nitrogen levels were quantified at MRC Harwell Institute, Mary Lyon Centre, Oxfordshire, UK.
All levels were quanitifed on an AU680 Clinical Chemistry Analyser, Beckman Coulter.

## eteplirsen
Exon 51
  levels of dystrophin restoration: approximately 1 % of normal dystrophin levels

## Ac-RXRRBRR-FQILY-RBRXR-B [Pip9b2]
[1]
  Serum blood urea nitrogen levels: elevated
